# According to patent publication US20250353873A1, “COMPOUNDS AND METHODS FOR MODULATING APOE EXPRESSION” (Ionis Pharmaceuticals, Inc., priority 2024, published 2025):
# Marks after values point to notes of the source that are not given here. Strand notation (5' to 3'): a small letter for the sugar, then the base; units joined by * are phosphorothioate-linked, units joined directly phosphodiester-linked; [ ] holds rarer units or linkages, { } end groups; capitals alone tell only the bases. [ms] = mesyl phosphoramidate linkage; e = 2'-O-(2-methoxyethyl) (MOE); k = constrained ethyl (cEt); [5mC] = 5-methylcytosine; d = 2'-deoxy (DNA)
# What was measured:
# [1] = test system: human APOE RNA; experiment: Activity in APOE C57BL/6NTac-Apoeem7250 knock-in mice, single ICV bolus, 20 weeks (Example 13); format: in vivo; details: single ICV bolus 300 μg, 20 weeks post treatment, normalized to mouse Ppia
# In short: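 Cortical and spinal cord RNA was assayed by real-time RT-PCR for human APOE, normalized to mouse Ppia and reported as percent of PBS controls. Tissue was taken twenty weeks after one 300 μg intracerebroventricular bolus in APOE knock-in mice, 4 per group.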
# [2] = test system: human APOE RNA; experiment: Duration of action study in APOE C57BL/6NTac-Apoeem7250 knock-in mice (Example 18); format: in vivo; details: single ICV bolus 300 μg, APOE knock-in mice, normalized to mouse Ppia, relative to PBS
# In short: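 Single 300 μg ICV bolus of modified oligonucleotide; PBS-bolus mice as controls. At various timepoints, cortex and spinal cord RNA quantified by RT-qPCR, human APOE normalized to mouse Ppia and expressed as % of PBS-treated control.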
# [3] = test system: human APOE RNA; experiment: Dose-dependent inhibition of human APOE RNA in HepG2 cells, electroporation, 50,000 cells per well, RT-PCR normalized to GAPDH (Example 4, Tables 8-10); format: cell-based; details: for APOE RNA (% UTC) 1,280 nM: 24-hour treatment, 1,280 nM; for APOE RNA (% UTC) 3,200 nM: 24-hour treatment, 3,200 nM; for APOE RNA (% UTC) 8,000 nM: 24-hour treatment, 8,000 nM; for APOE RNA (% UTC) 20,000 nM: 24-hour treatment, 20,000 nM
# In short: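 Readout is percent APOE RNA versus untreated controls, measured by RT-PCR (primer probe set RTS3073) and normalized to human GAPDH. Modified oligonucleotides were delivered by electroporation at varying doses into HepG2 cells plated at 50,000 per well.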
# [4] = test system: human APOE RNA; experiment: Potency (dose response, ED50) in APOE C57BL/6NTac-Apoeem7250 knock-in mice, 8 weeks (Example 15); format: in vivo
# Procedure: Modified oligonucleotides described above were tested in the APOE C57BL/6NTac-Apoeem7250 knock-in mouse model described above.
# APOE C57BL/6NTac-Apoeem7250 knock-in mice were divided into groups of 3-4 mice each. A group of 4 mice received a single ICV bolus with PBS as a negative control.
# Eight weeks post treatment, mice were sacrificed, and RNA was extracted from cortical brain tissue and spinal cord for quantitative real-time RT-PCR analysis of RNA expression of […] using human primer probe set RTS3073 (described herein above). APOE RNA levels were normalized to mouse Ppia. Mouse Ppia was amplified using primer probe set m_cyclo24 (described herein above). Results are presented as percent human APOE RNA relative to the amount of APOE RNA in PBS treated animals, (% control). N.C. indicates values that were not calculated.
# The half maximal effective dose (ED50) of each modified oligonucleotide was calculated using GraphPad Prism 10 software (GraphPad Software, San Diego, CA).
# [5] = test system: human APOE RNA; experiment: Duration of action study in APOE C57BL/6NTac-Apoeem7250 knock-in mice (Example 16); format: in vivo; details: 300 μg ICV
# In short: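 Knock-in mice (2-4 per group) received a single ICV bolus of 300 μg oligonucleotide or PBS. At various timepoints, cortex and spinal cord human APOE RNA was measured by RT-qPCR (RTS3073), normalized to mouse Ppia and expressed as % of PBS control.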
# [6] = test system: human APOE RNA; experiment: Activity in APOE C57BL/6NTac-Apoeem7250 knock-in mice, single ICV bolus, 16 weeks (Example 12); format: in vivo; details: single ICV bolus 300 μg, 16 weeks post treatment, normalized to mouse Ppia
# In short: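 A single 300 μg intracerebroventricular dose was given, with PBS-treated mice as reference; cortical and spinal cord tissue was taken 16 weeks later. RT-qPCR quantified human APOE RNA, Ppia-normalized, expressed relative to PBS animals (% control).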
# [7] = HepG2 cells, electroporation, 24-hour treatment, 5 nM, Table 8
# [8] = HepG2 cells, electroporation, 24-hour treatment, 13 nM, Table 8
# [9] = HepG2 cells, electroporation, 24-hour treatment, 33 nM, Table 8
# [10] = HepG2 cells, electroporation, 24-hour treatment, 82 nM, Table 8
# [11] = HepG2 cells, electroporation, 24-hour treatment, 205 nM, Table 8
# [12] = HepG2 cells, electroporation, 24-hour treatment, 512 nM, Table 8
# [13] = HepG2 cells, electroporation, Table 8
# [14] = reduction of human APOE RNA, HepG2 cells, electroporation, 24-hour treatment, Table 8
# [15] = single ICV bolus, GraphPad Prism 10
substance,measurement,setting,value
Aes^mCeoTeoTesGesGksTdsGdzAdzAdzTds^mCdsTdsTdsTdsAdzTksTksAesAe (eA*e[5mC]eTeT*eG*kG*dT*dG[ms]dA[ms]dA[ms]dT*d[5mC]*dT*dT*dT*dA[ms]kT*kT*eA*eA) [Compound No. 1757576],APOE RNA (% control) Cortex,[1],32 % control
same,APOE RNA (% control) Spinal Cord,[1],31 % control
same,APOE RNA (% control) Cortex,[2]; 196 days post-dose,71 % control
same,APOE RNA (% control) Cortex,[2]; 224 days post-dose,92‡ % control
same,APOE RNA (% control) Cortex,[2]; 285 days post-dose,87 % control
same,APOE RNA (% control) Spinal Cord,[2]; 196 days post-dose,28 % control
same,APOE RNA (% control) Spinal Cord,[2]; 224 days post-dose,33‡ % control
same,APOE RNA (% control) Spinal Cord,[2]; 285 days post-dose,86 % control
same,APOE RNA (% UTC),"[3]; 5 nM, HepG2, electroporation, 16-hour treatment",86 % UTC
same,APOE RNA (% UTC),"[3]; 13 nM, HepG2, electroporation, 16-hour treatment",74 % UTC
same,APOE RNA (% UTC),"[3]; 33 nM, HepG2, electroporation, 16-hour treatment",80 % UTC
same,APOE RNA (% UTC),"[3]; 82 nM, HepG2, electroporation, 16-hour treatment",84 % UTC
same,APOE RNA (% UTC),"[3]; 205 nM, HepG2, electroporation, 16-hour treatment",74 % UTC
same,APOE RNA (% UTC),"[3]; 512 nM, HepG2, electroporation, 16-hour treatment",61 % UTC
same,APOE RNA (% UTC),"[3]; 1,280 nM, HepG2, electroporation, 16-hour treatment",45 % UTC
same,APOE RNA (% UTC),"[3]; 3,200 nM, HepG2, electroporation, 16-hour treatment",32 % UTC
same,APOE RNA (% UTC),"[3]; 8,000 nM, HepG2, electroporation, 16-hour treatment",22 % UTC
same,APOE RNA (% UTC),"[3]; 20,000 nM, HepG2, electroporation, 16-hour treatment",7 % UTC
same,IC50,"[3]; HepG2, electroporation, 16-hour treatment",820 nM
same,APOE RNA (% UTC) 5 nM,[3]; [7],86 % UTC
same,APOE RNA (% UTC) 13 nM,[3]; [8],81 % UTC
same,APOE RNA (% UTC) 33 nM,[3]; [9],63 % UTC
same,APOE RNA (% UTC) 82 nM,[3]; [10],67 % UTC
same,APOE RNA (% UTC) 205 nM,[3]; [11],46 % UTC
same,APOE RNA (% UTC) 512 nM,[3]; [12],23 % UTC
same,"APOE RNA (% UTC) 1,280 nM",[3]; [13],24 % UTC
same,"APOE RNA (% UTC) 3,200 nM",[3]; [13],11 % UTC
same,"APOE RNA (% UTC) 8,000 nM",[3]; [13],15 % UTC
same,"APOE RNA (% UTC) 20,000 nM",[3]; [13],2 % UTC
same,IC50,[3]; [14],140 nM
same,APOE RNA (% control) Cortex,[4]; ICV dose 10 μg,93 % control
same,APOE RNA (% control) Cortex,[4]; ICV dose 30 μg,92 % control
same,APOE RNA (% control) Cortex,[4]; ICV dose 100 μg,52 % control
same,APOE RNA (% control) Cortex,[4]; ICV dose 300 μg,30 % control
same,APOE RNA (% control) Cortex,[4]; ICV dose 700 μg,18 % control
same,ED 50 (μg) Cortex,[4]; [15],135.7 µg
same,APOE RNA (% control) Spinal Cord,"[4]; spinal cord, ICV dose 10 μg",33 % control
same,APOE RNA (% control) Spinal Cord,"[4]; spinal cord, ICV dose 30 μg",15 % control
same,APOE RNA (% control) Spinal Cord,"[4]; spinal cord, ICV dose 100 μg",13 % control
same,APOE RNA (% control) Spinal Cord,"[4]; spinal cord, ICV dose 300 μg",9 % control
same,APOE RNA (% control) Spinal Cord,"[4]; spinal cord, ICV dose 700 μg",9 % control
same,APOE RNA (% control) Cortex,[5]; 7 days post-dose,45 % control
same,APOE RNA (% control) Cortex,[5]; 14 days post-dose,32 % control
same,APOE RNA (% control) Spinal Cord,[5]; 7 days post-dose,42 % control
same,APOE RNA (% control) Spinal Cord,[5]; 14 days post-dose,25 % control
same,APOE RNA (% control) Cortex,[6],45 % control
same,APOE RNA (% control) Spinal Cord,[6],14 % control
^mCksTksTksGdzGdzTdzGdzAdzAdzTds^mCdsTdsTdsTdsAdsTdsTksAksAdzAk (antisense k[5mC]*kT*kT*dG[ms]dG[ms]dT[ms]dG[ms]dA[ms]dA[ms]dT*d[5mC]*dT*dT*dT*dA*dT*kT*kA*dA[ms]kA) [Compound No. 1785602],APOE RNA (% control) Cortex,[1],53 % control
same,APOE RNA (% control) Spinal Cord,[1],28 % control
same,APOE RNA (% control) Cortex,[2]; 196 days post-dose,56 % control
same,APOE RNA (% control) Cortex,[2]; 224 days post-dose,79 % control
same,APOE RNA (% control) Cortex,[2]; 285 days post-dose,84† % control
same,APOE RNA (% control) Spinal Cord,[2]; 196 days post-dose,34 % control
same,APOE RNA (% control) Spinal Cord,[2]; 224 days post-dose,56 % control
same,APOE RNA (% control) Spinal Cord,[2]; 285 days post-dose,72† % control
same,APOE RNA (% UTC) 5 nM,[3]; [7],96 % UTC
same,APOE RNA (% UTC) 13 nM,[3]; [8],109 % UTC
same,APOE RNA (% UTC) 33 nM,[3]; [9],83 % UTC
same,APOE RNA (% UTC) 82 nM,[3]; [10],64 % UTC
same,APOE RNA (% UTC) 205 nM,[3]; [11],55 % UTC
same,APOE RNA (% UTC) 512 nM,[3]; [12],27 % UTC
same,"APOE RNA (% UTC) 1,280 nM",[3]; [13],18 % UTC
same,"APOE RNA (% UTC) 3,200 nM",[3]; [13],11 % UTC
same,"APOE RNA (% UTC) 8,000 nM",[3]; [13],8 % UTC
same,"APOE RNA (% UTC) 20,000 nM",[3]; [13],4 % UTC
same,IC50,[3]; [14],220 nM
same,APOE RNA (% control) Cortex,[4]; ICV dose 10 μg,95 % control
same,APOE RNA (% control) Cortex,[4]; ICV dose 30 μg,90 % control
same,APOE RNA (% control) Cortex,[4]; ICV dose 100 μg,57 % control
same,APOE RNA (% control) Cortex,[4]; ICV dose 300 μg,31 % control
same,APOE RNA (% control) Cortex,[4]; ICV dose 700 μg,21 % control
same,ED 50 (μg) Cortex,[4]; [15],153.2 µg
same,APOE RNA (% control) Spinal Cord,"[4]; spinal cord, ICV dose 10 μg",73 % control
same,APOE RNA (% control) Spinal Cord,"[4]; spinal cord, ICV dose 30 μg",40 % control
same,APOE RNA (% control) Spinal Cord,"[4]; spinal cord, ICV dose 100 μg",26 % control
same,APOE RNA (% control) Spinal Cord,"[4]; spinal cord, ICV dose 300 μg",20 % control
same,APOE RNA (% control) Spinal Cord,"[4]; spinal cord, ICV dose 700 μg",22 % control
same,ED 50 (μg) Spinal Cord,"[4]; spinal cord, single ICV bolus, GraphPad Prism 10",26.9 µg
same,APOE RNA (% control) Cortex,[5]; 7 days post-dose,40 % control
same,APOE RNA (% control) Cortex,[5]; 14 days post-dose,30 % control
same,APOE RNA (% control) Spinal Cord,[5]; 7 days post-dose,56 % control
same,APOE RNA (% control) Spinal Cord,[5]; 14 days post-dose,28 % control
same,APOE RNA (% control) Cortex,[6],38 % control
same,APOE RNA (% control) Spinal Cord,[6],20 % control
